These molecules were tested against T1, human JAK2 (Homo sapiens, UniProt O60674) (assay: In vitro JAK kinase assay (HTRF, phosphorylation of biotinylated peptide)). Conditions: catalytic domain a.a. 828-1132, 30 μM ATP, 500 nM peptide, room temperature 1 hr; read-out: JAK-2 IC50.
T1 construct: JAK2 (a.a. 828-1132); His tag (N); made in house; host or cells: insect cells (baculovirus)
Assay type: biochemical
In short: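 His-tagged human JAK2 catalytic domain (a.a. 828-1132), baculovirus/insect-cell expressed; phosphorylation of 500 nM biotinylated peptide at 30 μM ATP in 50 mM Tris pH 7.8, 100 mM NaCl, 5 mM DTT, 0.01% BSA. 1 h at room temperature, EDTA stop, HTRF read (Eu-Py20/SA-APC); IC50.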

T1 sequence (O60674 828-1132): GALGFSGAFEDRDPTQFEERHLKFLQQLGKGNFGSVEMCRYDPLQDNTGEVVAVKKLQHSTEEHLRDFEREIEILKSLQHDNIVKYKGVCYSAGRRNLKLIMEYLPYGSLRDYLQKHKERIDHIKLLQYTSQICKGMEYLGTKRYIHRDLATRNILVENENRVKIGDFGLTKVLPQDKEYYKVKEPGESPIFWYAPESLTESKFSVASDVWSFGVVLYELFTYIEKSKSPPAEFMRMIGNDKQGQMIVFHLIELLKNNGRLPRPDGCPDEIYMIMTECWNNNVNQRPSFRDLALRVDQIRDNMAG

IC50, < 0.1 µM:
N#CCC1(n2cc(-c3ccnc(Nc4ccc(N5CCCC5=O)cc4)n3)cn2)CC(C#N)C1 (single isomer, unassigned) [Example 340, 3-(cyanomethyl)-3-[4-(2-{[4-(2-oxopyrrolidin-1-yl)phenyl]amino}pyrimidin-4-yl)-1H-pyrazol-1-yl]cyclobutanecarbonitrile]
N#CCC1(n2cc(-c3ccnc(Nc4ccc(-n5cccn5)cc4)n3)cn2)CC(C#N)C1 (single isomer, unassigned) [Example 341, 3-(cyanomethyl)-3-[4-(2-{[4-(1H-pyrazol-1-yl)phenyl]amino}pyrimidin-4-yl)-1H-pyrazol-1-yl]cyclobutanecarbonitrile]
N#CCC1(n2cc(-c3ccnc(Nc4ccc(-c5cnco5)cc4)n3)cn2)CC(C#N)C1 (single isomer, unassigned) [Example 342, 3-(cyanomethyl)-3-[4-(2-{[4-(1,3-oxazol-5-yl)phenyl]amino}pyrimidin-4-yl)-1H-pyrazol-1-yl]cyclobutanecarbonitrile]
N#CCC1(n2cc(-c3ccnc(Nc4cccc(-c5cnco5)c4)n3)cn2)CC(C#N)C1 (single isomer, unassigned) [Example 343, 3-(cyanomethyl)-3-[4-(2-{[3-(1,3-oxazol-5-yl)phenyl]amino}pyrimidin-4-yl)-1H-pyrazol-1-yl]cyclobutanecarbonitrile]
N#CCC1(n2cc(-c3ccnc(Nc4ccc(S(=O)(=O)N5CCOCC5)cc4)n3)cn2)CC(C#N)C1 (single isomer, unassigned) [Example 344, 3-(cyanomethyl)-3-[4-(2-{[4-(morpholin-4-ylsulfonyl)phenyl]amino}pyrimidin-4-yl)-1H-pyrazol-1-yl]cyclobutanecarbonitrile]
N#CCC1(n2cc(-c3ccnc(Nc4cccc(N5CCCC5=O)c4)n3)cn2)CC(C#N)C1 (single isomer, unassigned) [Example 348, 3-(cyanomethyl)-3-[4-(2-{[3-(2-oxopyrrolidin-1-yl)phenyl]amino}pyrimidin-4-yl)-1H-pyrazol-1-yl]cyclobutanecarbonitrile]
N#CCC1(n2cc(-c3ccnc(Nc4cccc(-c5cnco5)c4)n3)cn2)CN(S(=O)(=O)C2CC2)C1 [Example 18, 2-(1-(cyclopropylsulfonyl)-3-(4-(2-(3-(oxazol-5-yl)phenylamino)pyrimidin-4-yl)-1H-pyrazol-1-yl)azetidin-3-yl)acetonitrile]
CC(=O)Nc1ccc(Nc2nccc(-c3cnn(C4(CC#N)CN(S(=O)(=O)C5CC5)C4)c3)n2)cc1 [Example 19, N-(4-(4-(1-(3-(cyanomethyl)-1-(cyclopropylsulfonyl)azetidin-3-yl)-1H-pyrazol-4-yl)pyrimidin-2-ylamino)phenyl)acetamide]
Cc1nccc(-c2cccc(Nc3nccc(-c4cnn(C5(CC#N)CN(S(=O)(=O)C6CC6)C5)c4)n3)c2)n1 [Example 20, 2-(1-(cyclopropylsulfonyl)-3-(4-(2-(3-(2-methylpyrimidin-4-yl)phenylamino)pyrimidin-4-yl)-1H-pyrazol-1-yl)azetidin-3-yl)acetonitrile]
N#CCC1(n2cc(-c3ccnc(Nc4ccc(-c5cnco5)cc4)n3)cn2)CN(S(=O)(=O)C2CC2)C1 [Example 21, 2-(1-(cyclopropylsulfonyl)-3-(4-(2-(4-(oxazol-5-yl)phenylamino)pyrimidin-4-yl)-1H-pyrazol-1-yl)azetidin-3-yl)acetonitrile]
N#CCC1(n2cc(-c3ccnc(Nc4ccc(-n5cccn5)cc4)n3)cn2)CCN(S(=O)(=O)C2CC2)CC1 [Example 28, 2-(4-(4-(2-(4-(1H-pyrazol-1-yl)phenylamino)pyrimidin-4-yl)-1H-pyrazol-1-yl)-1-(cyclopropylsulfonyl)piperidin-4-yl)acetonitrile]
N#CCC1(n2cc(-c3ccnc(Nc4ccc(N5CCOCC5)cc4)n3)cn2)CCN(S(=O)(=O)C2CC2)CC1 [Example 29, 2-(1-(cyclopropylsulfonyl)-4-(4-(2-(4-morpholinophenylamino)pyrimidin-4-yl)-1H-pyrazol-1-yl)piperidin-4-yl)acetonitrile]
N#CCC1(n2cc(-c3ccnc(Nc4ccc(C(N)=O)cc4)n3)cn2)CCN(S(=O)(=O)C2CC2)CC1 [Example 30, 4-(4-(1-(4-(cyanomethyl)-1-(cyclopropylsulfonyl)piperidin-4-yl)-1H-pyrazol-4-yl)pyrimidin-2-ylamino)benzamide]
N#CCC1(n2cc(-c3ccnc(Nc4ccc(C(=O)NCCO)cc4)n3)cn2)CCN(S(=O)(=O)C2CC2)CC1 [Example 31, 4-(4-(1-(4-(cyanomethyl)-1-(cyclopropylsulfonyl)piperidin-4-yl)-1H-pyrazol-4-yl)pyrimidin-2-ylamino)-N-(2-hydroxyethyl)benzamide]
CN(C)C(=O)c1ccc(Nc2nccc(-c3cnn(C4(CC#N)CCN(S(=O)(=O)C5CC5)CC4)c3)n2)cc1 [Example 32, 4-(4-(1-(4-(cyanomethyl)-1-(cyclopropylsulfonyl)piperidin-4-yl)-1H-pyrazol-4-yl)pyrimidin-2-ylamino)-N,N-dimethylbenzamide]
N#CCC1(n2cc(-c3ccnc(Nc4ccc(N5CCOCC5)cc4)n3)cn2)CN(S(=O)(=O)C2CC2)C1 [Example 93, 2-(1-(cyclopropylsulfonyl)-3-(4-(2-(4-morpholinophenylamino)pyrimidin-4-yl)-1H-pyrazol-1-yl)azetidin-3-yl)acetonitrile]
N#CCC1(n2cc(-c3ccnc(Nc4ccc(N5CCOCC5)cc4)n3)cn2)CCN(C(=O)c2ccno2)CC1 [Example 94, 2-(1-(isoxazole-5-carbonyl)-4-(4-(2-(4-morpholinophenylamino)pyrimidin-4-yl)-1H-pyrazol-1-yl)piperidin-4-yl)acetonitrile]
CN1CCCC1CCNC(=O)c1cccc(Nc2nccc(-c3cnn(C(CC#N)C4CCCC4)c3)n2)c1 (stereo not shown) [Example 149, 3-(4-(1-(2-cyano-1-cyclopentylethyl)-1H-pyrazol-4-yl)pyrimidin-2-ylamino)-N-(2-(1-methylpyrrolidin-2-yl)ethyl)benzamide]
N#CCC(C1CCCC1)n1cc(-c2ccnc(Nc3cccc(C(=O)NCCN4CCNC4=O)c3)n2)cn1 (stereo not shown) [Example 159, 3-(4-(1-(2-cyano-1-cyclopentylethyl)-1H-pyrazol-4-yl)pyrimidin-2-ylamino)-N-(2-(2-oxoimidazolidin-1-yl)ethyl)benzamide]
N#CCC(C1CCCC1)n1cc(-c2ccnc(Nc3cccc(NC(=O)O[C@@H]4CCOC4)c3)n2)cn1 (stereo partly drawn) [Example 200, (R)-tetrahydrofuran-3-yl 3-(4-(1-(2-cyano-1-cyclopentylethyl)-1H-pyrazol-4-yl)pyrimidin-2-ylamino)phenylcarbamate]
N#CCC(C1CCCC1)n1cc(-c2ccnc(Nc3ccc(NC(=O)CN4CC[C@@H](O)C4)cc3)n2)cn1 (stereo partly drawn) [Example 204, N-(4-(4-(1-(2-cyano-1-cyclopentylethyl)-1H-pyrazol-4-yl)pyrimidin-2-ylamino)phenyl)-2-((R)-3-hydroxypyrrolidin-1-yl)acetamide]
CC(=O)N[C@H]1CCN(C(=O)c2ccc(Nc3nccc(-c4cnn(C(CC#N)C5CCCC5)c4)n3)cc2)C1 (stereo partly drawn) [Example 222, N-((3S)-1-(4-(4-(1-(2-cyano-1-cyclopentylethyl)-1H-pyrazol-4-yl)pyrimidin-2-ylamino)benzoyl)pyrrolidin-3-yl)acetamide]
CCS(=O)(=O)N1CC(CC#N)(n2cc(-c3ccnc(Nc4ccc(C(=O)N5CCOCC5)cc4)n3)cn2)C1 [Example 255, 2-(1-(ethylsulfonyl)-3-(4-(2-(4-(morpholine-4-carbonyl)phenylamino)pyrimidin-4-yl)-1H-pyrazol-1-yl)azetidin-3-yl)acetonitrile]
CCS(=O)(=O)N1CC(CC#N)(n2cc(-c3ccnc(Nc4ccc(C(=O)N5CCC(O)CC5)cc4)n3)cn2)C1 [Example 256, 2-(1-(ethylsulfonyl)-3-(4-(2-(4-(4-hydroxypiperidine-1-carbonyl)phenylamino)pyrimidin-4-yl)-1H-pyrazol-1-yl)azetidin-3-yl)acetonitrile]
CCS(=O)(=O)N1CC(CC#N)(n2cc(-c3ccnc(Nc4ccc(C(=O)N5[C@@H]6CC[C@H]5C[C@@H](O)C6)cc4)n3)cn2)C1 [Example 257, 2-(1-(ethylsulfonyl)-3-(4-(2-(4-((3-endo)-3-hydroxy-8-azabicyclo[3.2.1]octane-8-carbonyl)phenylamino)pyrimidin-4-yl)-1H-pyrazol-1-yl)azetidin-3-yl)acetonitrile]
CCS(=O)(=O)N1CC(CC#N)(n2cc(-c3ccnc(Nc4ccc(C(=O)N5CCCC5)cc4)n3)cn2)C1 [Example 258, 2-(1-(ethylsulfonyl)-3-(4-(2-(4-(pyrrolidine-1-carbonyl)phenylamino)pyrimidin-4-yl)-1H-pyrazol-1-yl)azetidin-3-yl)acetonitrile]
CCS(=O)(=O)N1CC(CC#N)(n2cc(-c3ccnc(Nc4ccc(C(=O)NC5CCOCC5)cc4)n3)cn2)C1 [Example 259, 4-(4-(1-(3-(cyanomethyl)-1-(ethylsulfonyl)azetidin-3-yl)-1H-pyrazol-4-yl)pyrimidin-2-ylamino)-N-(tetrahydro-2H-pyran-4-yl)benzamide]
CCS(=O)(=O)N1CC(CC#N)(n2cc(-c3ccnc(Nc4ccc(C(=O)N5CCC5)cc4)n3)cn2)C1 [Example 273, 2-(3-(4-(2-(4-(azetidine-1-carbonyl)phenylamino)pyrimidin-4-yl)-1H-pyrazol-1-yl)-1-(ethylsulfonyl)azetidin-3-yl)acetonitrile]
